Experimental data reported in patent US9718790B2, “Triazine derivative and pharmaceutical composition having an analgesic activity comprising the same” (SHIONOGI & CO., LTD., priority 2010, dated 2017).
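Further: stimulus was 50 nM ATP with fluorescence followed for 3 min, and the response per well was peak post-ATP fluorescence divided by the reading at measurement start.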

What follows are molecules tested against human P2X3 receptor (Homo sapiens (Human), UniProt P56373) (assay: Evaluation of human P2X3 receptor inhibitory activity (Fluo-3 calcium fluorescence, FDSS 3000, ATP stimulation)). Conditions: C6BU-1 cells stably expressing human P2X3 receptor.
Chain of human P2X3 receptor (P56373 whole entry): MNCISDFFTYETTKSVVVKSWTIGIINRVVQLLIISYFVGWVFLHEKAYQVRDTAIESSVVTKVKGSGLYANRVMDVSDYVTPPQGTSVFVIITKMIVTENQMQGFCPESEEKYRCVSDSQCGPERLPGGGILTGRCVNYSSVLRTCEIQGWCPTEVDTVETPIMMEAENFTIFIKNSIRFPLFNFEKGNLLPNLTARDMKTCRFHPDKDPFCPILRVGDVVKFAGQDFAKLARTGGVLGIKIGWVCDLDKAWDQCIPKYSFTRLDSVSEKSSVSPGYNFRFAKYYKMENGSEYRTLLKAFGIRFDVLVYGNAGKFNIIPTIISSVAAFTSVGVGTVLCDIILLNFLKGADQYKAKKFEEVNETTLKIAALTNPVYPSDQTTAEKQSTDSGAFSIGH
Assay type: cell-based
Molecule COC(=O)[C@H](C)[C@H](C)n1c(=O)[nH]/c(=N\c2ccc3nc(C)ccc3c2)n(Cc2ccc(C)cc2)c1=O [Compound I-1324] has an IC50 of 9 nM.
For Cc1ccc(Cn2c(=O)n([C@H](C)[C@H](C)C(=O)O)c(=O)[nH]/c2=N\c2ccc(OCC3CC3)cc2)cc1 [Compound I-1341], the IC50 was 36 nM.
Work on Cc1ccc(Cn2c(=O)n([C@@H](C)[C@@H](C)C(=O)O)c(=O)[nH]/c2=N\c2ccc(N3CCCCC3)cc2)cc1 [Compound I-1394] yielded an IC50 of 44 nM.
Work on CC(C)Oc1ccc(/N=c2\[nH]c(=O)n(CCC(=O)NC#N)c(=O)n2Cc2ccc(Cl)cc2)cc1F [Compound I-0758, 1-(4-chlorobenzyl)-6-(3-fluoro-4-isopropoxyphenylimino)-3-[2-(cyanocarbamoyl)ethyl]-1,3,5-triazinane-2,4-dion] yielded an IC50 of 19 nM.
Cc1cc(Oc2ccc(/N=c3\[nH]c(=O)n(CC(N)=O)c(=O)n3Cc3ccc(Cl)cc3)cc2)ccn1 [Compound I-1926] gave an IC50 of 10 nM.
Cc1cc(/N=c2\[nH]c(=O)n(CC[C@H](N)C(=O)O)c(=O)n2Cc2ccc(Cl)cc2)ccc1OC(C)C [Compound I-0736, (S)-1-(4-chlorobenzyl)-3-(3-amino-3-hydroxycarbonylpropyl)-6-(3-mehyl-4-isopropoxyphenylimino)-1,3,5-triazinane-2,4-dion] was tested, and the IC50 was 131 nM.
For COC(=O)c1cccc(Oc2ccc(/N=c3\[nH]c(=O)n(C)c(=O)n3Cc3ccc(Cl)cc3)cc2)c1 [Compound I-2059], the IC50 was 56 nM.
CO[C@@H](Cn1c(=O)[nH]/c(=N\c2ccc(OC(C)C)c(C)c2)n(Cc2ccc(Cl)cc2)c1=O)C(=O)O [Compound I-0807, (S)-1-(4-chlorobenzyl)-6-(3-mehyl-4-isopropoxyphenylimino)-3-(2-hydroxycarbonyl-2-methoxyethyl)-1,3,5-triazinane-2,4-dion] showed an IC50 of 13 nM.
In the case of COC(=O)[C@@H](C)Cn1c(=O)[nH]/c(=N\c2ccc3nc(C)ccc3c2)n(Cc2ccc(Cl)cc2)c1=O [Compound I-0790], the IC50 is reported as 13 nM.
In the case of CC(C)Oc1ccc(/N=c2\[nH]c(=O)n(CCc3n[nH]c(=O)o3)c(=O)n2Cc2ccc(Cl)cc2)cc1F [Compound I-0646], the IC50 is reported as 28 nM.
COC(=O)[C@@H](C)Cn1c(=O)[nH]/c(=N\c2cccc(C(F)(F)F)c2)n(Cc2ccc(Cl)cc2)c1=O [Compound I-0622] was tested, and the IC50 was 30 nM.
Work on O=C(O)CCn1c(=O)[nH]/c(=N\c2ccc(Oc3cncc(F)c3)cc2)n(Cc2ccc(Cl)cc2)c1=O [Compound I-1412] yielded an IC50 of 11 nM.
Molecule Cc1ccc(Cn2c(=O)n(C[C@H](C)C(=O)O)c(=O)[nH]/c2=N\c2ccc(Cc3ccncc3)cc2)cc1 [Compound I-1262] has an IC50 of 163 nM.
Work on C[C@@H](Cn1c(=O)[nH]/c(=N\c2ccc3c(c2)CCO3)n(Cc2ccc(Cl)cc2)c1=O)C(=O)O [Compound I-0773] yielded an IC50 of 790 nM.
Work on CCn1c(=O)[nH]/c(=N\c2ccc(Oc3ccsc3C(=O)O)cc2)n(Cc2ccc(Cl)cc2)c1=O [Compound I-2041] yielded an IC50 of 109 nM.
In the case of CCn1c(=O)[nH]/c(=N\c2ccc(Oc3ccc(S(N)(=O)=O)cc3)cc2)n(Cc2ccc(C)cc2)c1=O [Compound I-2032], the IC50 is reported as 4 nM.
CCOC(=O)CCn1c(=O)[nH]/c(=N\c2ccc(CC(C)C)c(C)c2)n(Cc2ccc(C)cc2)c1=O [Compound I-1216] was tested, and the IC50 was 13 nM.
In the case of COC(=O)[C@@H](C)Cn1c(=O)[nH]/c(=N\c2ccc(Br)c(OC)c2)n(Cc2ccc(C)cc2)c1=O [Compound I-1195], the IC50 is reported as 221 nM.
COC(=O)[C@H](C)[C@H](C)n1c(=O)[nH]/c(=N\c2ccc(CC(C)C)c(Cl)c2)n(Cc2ccc(Cl)cc2)c1=O [Compound I-1435] gave an IC50 of 61 nM.

Same assay, conditions: C6BU-1 cells stably expressing human P2X3 receptor, Fluo-3 fluorescence, FDSS 3000
Molecule COC(=O)[C@@H](C)Cn1c(=O)[nH]/c(=N\c2ccc(CC3CCCC3)cc2)n(Cc2ccc(Cl)cc2)c1=O [Compound I-1097] has an IC50 of 141 nM.
CCc1oc2ccc(/N=c3\[nH]c(=O)n(CCNC(=O)C(F)(F)F)c(=O)n3Cc3ccc(Cl)cc3)cc2c1C [Compound I-1565] gave an IC50 of 8 nM.
O=C(O)CCn1c(=O)[nH]/c(=N\c2ccc(OCc3cccnc3)cc2)n(Cc2ccc(Cl)cc2)c1=O [Compound I-1632] showed an IC50 of 389 nM.
In the case of Cc1ccc(Cn2c(=O)n(CCC(=O)O)c(=O)[nH]/c2=N\c2ccc3nc(C(C)C)sc3c2)cc1 [Compound I-1563], the IC50 is reported as 31 nM.
With C[C@@H](C(=O)O)[C@H](C)n1c(=O)[nH]/c(=N\c2ccc3c(O)cccc3c2)n(Cc2ccc(Cl)cc2)c1=O [Compound I-1826] the IC50 was 751 nM.
Cc1ccc(Cn2c(=O)n(CCC(=O)O)c(=O)[nH]/c2=N\c2ccc(OC3CC3)c(Cl)c2)cc1 [Compound I-1608] showed an IC50 of 100 nM.
NC(=O)Cn1c(=O)[nH]/c(=N\c2ccc(Oc3ccc(O)nc3)cc2)n(Cc2ccc(Cl)cc2)c1=O [Compound I-1900] was tested, and the IC50 was 16 nM.
Work on Cc1ccc(Cn2c(=O)n(C[C@H](C)C(=O)O)c(=O)[nH]/c2=N\c2ccc(CN(C)C)c(Cl)c2)cc1 [Compound I-1177] yielded an IC50 of 273 nM.
In the case of Cc1ccc(Cn2c(=O)n(C[C@H](C)C(=O)O)c(=O)[nH]/c2=N\c2ccc(Oc3cccnc3)cc2)cc1 [Compound I-1123], the IC50 is reported as 14 nM.
With CC(C)Cn1c(=O)oc2cc(Nc3nc(=O)n(C(C)C)c(=O)n3Cc3ccc(Cl)cc3)ccc21 [Compound I-0268] the IC50 was 861 nM.
Work on COC(=O)[C@@H](C)Cn1c(=O)[nH]/c(=N\c2ccc(OC3CCOCC3)nc2)n(Cc2ccc(C)cc2)c1=O [Compound I-1118] yielded an IC50 of 387 nM.
Molecule Cc1cc(/N=c2\[nH]c(=O)n(CC(CO)CO)c(=O)n2Cc2ccc(Cl)cc2)ccc1OC(C)C [Compound I-1905] has an IC50 of 5 nM.
O=C(O)CCn1c(=O)[nH]/c(=N\c2ccc(OCc3ccccn3)cc2)n(Cc2ccc(Cl)cc2)c1=O [Compound I-1628] was tested, and the IC50 was 683 nM.
With COC(=O)[C@@H](C)Cn1c(=O)[nH]/c(=N\c2ccc(N3CCCCC3)cc2)n(Cc2ccc(Cl)cc2)c1=O [Compound I-0954] the IC50 was 23 nM.
With C[C@@H](C(=O)O)[C@H](C)n1c(=O)[nH]/c(=N\c2ccc3c(c2)CCOC3)n(Cc2ccc(Cl)cc2)c1=O [Compound I-1810] the IC50 was 682 nM.
In the case of Cc1ccc(Cn2c(=O)n([C@@H](C)[C@@H](C)C(=O)O)c(=O)[nH]/c2=N\c2ccc(OCC3CC3)cc2)cc1 [Compound I-0972], the IC50 is reported as 38 nM.
CCc1nc2ccc(/N=c3\[nH]c(=O)n(CCC(=O)NS(C)(=O)=O)c(=O)n3Cc3ccc(Cl)cc3)cc2s1 [Compound I-1875] was tested, and the IC50 was 13 nM.
With CCc1oc2ccc(/N=c3\[nH]c(=O)n(CCCC(=O)O)c(=O)n3Cc3ccc(Cl)cc3)cc2c1C [Compound I-1704] the IC50 was 15 nM.
In the case of CC[C@@H](C)Oc1ccc(/N=c2\[nH]c(=O)n(C[C@H](C)C(=O)OC)c(=O)n2Cc2ccc(C)cc2)cc1Cl [Compound I-1015], the IC50 is reported as 7 nM.
In the case of COC(=O)[C@@H](C)Cn1c(=O)[nH]/c(=N\c2ccc(OC(C)C)cc2)n(Cc2ccc(I)cc2)c1=O [Compound I-1080], the IC50 is reported as 66 nM.
O=c1[nH]/c(=N\c2ccc(Oc3ccnc(O)c3)cc2)n(Cc2ccc(Cl)cc2)c(=O)n1CCO [Compound I-1712] was tested, and the IC50 was 4 nM.
CC(C)Oc1ccc(/N=c2\[nH]c(=O)n(C[C@H](C)C(=O)O)c(=O)n2Cc2ccc(I)cc2)cc1 [Compound I-1092] showed an IC50 of 69 nM.

Same assay, conditions: human P2X3 receptor, Test Example 1
O=C(O)Cn1c(=O)[nH]/c(=N\c2ccc(Oc3ccon3)c(F)c2)n(Cc2ccc(Cl)cc2)c1=O [Compound I-2580] gave an IC50 of 204 nM.
Molecule CC(=O)NCCn1c(=O)[nH]/c(=N\c2ccc(Oc3ccon3)cc2)n(Cc2ccc(Cl)cc2)c1=O [Compound I-2524] has an IC50 of 34 nM.
With CCOC(=O)Cn1c(=O)[nH]/c(=N\c2ccc(Oc3nccs3)cc2)n(Cc2ccc(Cl)cc2)c1=O [Compound I-2618] the IC50 was 7 nM.
CCn1c(=O)[nH]/c(=N\c2ccc(Sc3ccc(C(=O)OC)cc3)cc2)n(Cc2ccc(Cl)cc2)c1=O [Compound I-2597] was tested, and the IC50 was 215 nM.
Work on CNC(=O)Cn1c(=O)[nH]/c(=N\c2ccc(Oc3cccc(F)n3)cc2)n(Cc2ccc(Cl)cc2)c1=O [Compound I-2585] yielded an IC50 of 8 nM.
Cc1ccc(Cn2c(=O)n(C)c(=O)[nH]/c2=N\c2ccc(Oc3cncc(C(N)=O)n3)cc2)cc1 [Compound I-2473] gave an IC50 of 8 nM.
Molecule CCn1c(=S)[nH]/c(=N\c2ccc(Oc3ccnc(O)c3)cc2)n(Cc2ccc(Cl)cc2)c1=O [Compound I-2258] has an IC50 of 3 nM.
O=C(O)Cn1c(=O)[nH]/c(=N\c2ccc(Oc3nccs3)cc2)n(Cc2ccc(Cl)cc2)c1=O [Compound I-2623] showed an IC50 of 506 nM.
NC(=O)Cn1c(=O)[nH]/c(=N\c2ccc(Oc3cccnn3)cc2)n(Cc2ccc(Cl)cc2)c1=O [Compound I-2689] was tested, and the IC50 was 20 nM.
CCn1c(=O)[nH]/c(=N\c2ccc(Oc3cc(C(=O)O)ncn3)cc2)n(Cc2ccc(C)cc2)c1=O [Compound I-2444] was tested, and the IC50 was 8 nM.
Work on CCCn1c(=O)[nH]/c(=N\c2ccc(Oc3ccc(C#N)nc3)cc2)n(Cc2ccc(Cl)cc2)c1=O [Compound I-2230] yielded an IC50 of 2 nM.
Work on Cc1cc(/N=c2\[nH]c(=O)n(C[C@H](O)C(=O)O)c(=O)n2Cc2ccc(Cl)cc2)ccc1OC(C)C [Compound I-0852, (S)-1-(4-chlorobenzyl)-6-(3-mehyl-4-isopropoxyphenylimino)-3-(2-hydroxycarbonyl-2-hydroxyethyl)-1,3,5-triazinane-2,4-dion] yielded an IC50 of 38 nM.
Work on Cc1cc(/N=c2\[nH]c(=O)n([C@H](C)[C@H](C)C(=O)O)c(=O)n2Cc2ccc(Cl)cc2)ccc1OC(C)C [Compound I-0825] yielded an IC50 of 25 nM.
With Cc1nsc(Oc2ccc(/N=c3\[nH]c(=O)n(CC(CO)CO)c(=O)n3Cc3ccc(F)cc3)cc2)n1 [Compound I-2605] the IC50 was 14 nM.
Molecule CCOC(=O)Cn1c(=O)[nH]/c(=N\c2ccc(Oc3nc(C)ns3)cc2)n(Cc2ccc(Cl)cc2)c1=O [Compound I-2570] has an IC50 of 5 nM.
Cn1c(=O)[nH]/c(=N\c2ccc(Oc3cccc(C#N)n3)c(F)c2)n(Cc2ccc(Cl)cc2)c1=O [Compound I-2493] gave an IC50 of 5 nM.
In the case of Cc1nsc(Oc2ccc(/N=c3\[nH]c(=O)n(CCO)c(=O)n3Cc3ccc(Cl)cc3)cc2)n1 [Compound I-2575], the IC50 is reported as 6 nM.
Work on COC(=O)[C@@H](C)Cn1c(=O)[nH]/c(=N\c2ccc(CC(C)(C)F)c(Cl)c2)n(Cc2ccc(C)cc2)c1=O [Compound I-1528] yielded an IC50 of 32 nM.
In the case of CC[C@@H](C)Oc1ccc(/N=c2\[nH]c(=O)n(C[C@H](C)C(=O)OC)c(=O)n2Cc2ccc(C)cc2)cc1C [Compound I-0823], the IC50 is reported as 11 nM.
